Test [1] deals with T1, Wisteria floribunda lectin (WFA) (Wisteria floribunda, UniProt A0A218PFP3).
T1 sequence (A0A218PFP3 31-273): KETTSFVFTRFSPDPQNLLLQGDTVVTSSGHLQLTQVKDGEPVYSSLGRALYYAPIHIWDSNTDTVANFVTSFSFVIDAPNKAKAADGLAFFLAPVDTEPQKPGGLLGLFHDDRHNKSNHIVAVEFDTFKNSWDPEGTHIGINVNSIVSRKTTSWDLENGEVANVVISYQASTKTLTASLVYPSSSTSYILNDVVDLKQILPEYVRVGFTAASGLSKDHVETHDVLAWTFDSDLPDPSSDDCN
Put plainly: SPFS sandwich immunoassay of PSA with labeled WFA, added competing sugar chain compound, S/N ratio. Particulars: PSA in commercially available serum, sugar chain compound 0.1% by weight in PBS for 10 minutes, none: S/N 2. The protocol: Antigen Addition Step: To one of the thus prepared sensor chip, 0.5 mL of a solution having a PSA concentration of 1.0 ng/mL, which was prepared by diluting the LNCaP culture supernatant with a commercially available serum (manufactured by Kohjin Bio Co., Ltd.), was added and circulated for 25 minutes in place of PBS. To the other sensor chip, a commercially available serum (manufactured by Kohjin Bio Co., Ltd.) containing no LNCaP culture supernatant was added and circulated for 25 minutes.
Washing Step: Each sensor chip was washed by circulating TBS containing 0.05% by weight of Tween 20 as a transfer liquid. Here, using a laser light source, the metal thin films of the sensor chip were irradiated with laser light having a wavelength of 635 nm, whose photon amount was adjusted by an optical filter (manufactured by Sigmakoki Co., Ltd.), through a prism (“S-LAL 10” manufactured by Ohara Inc. (refractive index [n]=1.72)), and the blank fluorescence was detected using a CCD image sensor (manufactured by Texas Instruments Inc.) equipped with a cut filter for cutting light having wavelengths of non-fluorescent components and an objective lens (×20). […]
Further, also for each of the following cases, the same experiment as described above was carried out and the S/N ratio was determined: […]

The target of test [2] is T2, Lens culinaris lectin (LCA) (Lens culinaris, UniProt P02870).
T2 sequence (P02870 31-211 limits assumed): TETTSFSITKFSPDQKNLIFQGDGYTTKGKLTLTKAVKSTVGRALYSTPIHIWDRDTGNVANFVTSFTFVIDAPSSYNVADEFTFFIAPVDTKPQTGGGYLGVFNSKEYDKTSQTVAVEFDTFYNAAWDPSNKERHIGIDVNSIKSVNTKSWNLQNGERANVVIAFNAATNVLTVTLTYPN
T2 sequence (P02870 218-269 limits assumed): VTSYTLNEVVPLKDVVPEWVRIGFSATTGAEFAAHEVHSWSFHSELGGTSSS
As to the kind of experiment: Dissociation constant (Kd) with labeled LCA lectin. The test is classed as binding. Particulars: between sugar chain compound to be added and labeled lectin LCA; target compound AFP; read-out: Dissociation constant (Kd) x. From the text:
In the present invention, the dissociation constant is defined as follows.
The binding between a sugar chain compound (A) and a lectin (B) occurs through a reversible reaction, and the following formula is established in an equilibrium state (wherein, [A] represents the concentration of the sugar chain compound (mol/L); [B] represents the concentration of the lectin (mol/L); and [A−B] represents the concentration of conjugates formed between the sugar chain compound and the lectin (mol/L)). [A−B]⇄[A]+[B]
In this case, the dissociation constant, Kd, between the sugar chain compound (A) and the lectin (B) is represented by the following equation: Kd=[A]×[B]/[A−B]

Test [3] deals with T2, Lens culinaris lectin (LCA). Put plainly: SPFS sandwich immunoassay of AFP with labeled LCA, added competing sugar chain compound, S/N ratio. Particulars: AFP 3.0 ng/mL in commercially available serum, sugar chain compound 0.1% by weight in PBS for 10 minutes, none: S/N 2.

Structures are written as SMILES.

For `CC(C)CCCC(C)C1CCC2C3CC=C4CC(OC(=O)NCCOC5OC(C)[C@@H](O)C(O)[C@H]5O)CC[C@]4(C)C3CC[C@]12C` (stereo partly drawn) [Fuc-2-Chol], the S/N in test [1] is recorded as 3.

For `CC(C)CCCC(C)C1CCC2C3CC=C4CC(OC(=O)NCCOC5OC(CO)[C@H](O)C(O)[C@@H]5O)CC[C@]4(C)C3CC[C@]12C` (stereo partly drawn) [Man-2-Chol], in test [2], the Kd was 220 µM. Moreover, in test [3], the S/N was 3.

Usually Kd stands for the concentration at which binding is half-saturated.

The record behind these values is patent US9874558B2, “Immunoassay method less affected by impurities” (Konica Minolta, Inc., priority 2012, dated 2018).
